Active and inactive are the calls of the source. The rule behind the calls is not given here.

For the assay, the system named is Staphylococcus aureus. Nature of the assay: Antibacterial activity against tarO deficient Staphylococcus aureus RN4220 assessed as growth inhibition at 100 uM after 12 hrs by optical density plate reader method. In kind it is functional.
Take `COc1ccccc1CNc1nc2c(S(=O)(=O)c3ccc(C)c(C)c3)nnn2c2ccc(Cl)cc12`: the outcome was inactive.
In the case of `CC1CCN(c2nc3c(S(=O)(=O)c4ccccc4)nnn3c3ccc(Cl)cc23)CC1` it was “inactive”; in that of `CCc1ccc(S(=O)(=O)c2nnn3c2nc(NCCC(C)C)c2cc(Cl)ccc23)cc1`, “inactive”.
The result for `Cc1ccc(S(=O)(=O)c2nnn3c2nc(N2CCC(C(N)=O)CC2)c2cc(Cl)ccc23)cc1C` reads “inactive”.
In the case of `O=S(=O)(c1ccccc1)c1nnn2c1nc(Nc1ccccc1)c1cc(Cl)ccc12`, the result was inactive.
In the case of `CCOC(=O)C1CCCN(c2nc3c(S(=O)(=O)c4ccc(CC)cc4)nnn3c3ccc(Cl)cc23)C1` (configuration not stated) it was “inactive”; in that of `O=S(=O)(c1ccccc1)c1nnn2c1nc(Cl)c1ccccc12`, “inactive”.
Take `CSc1cccc(Nc2nc3c(S(=O)(=O)c4ccccc4)nnn3c3ccc(Cl)cc23)c1`: the result was inactive.
As for `COc1ccc(CNc2nc3c(S(=O)(=O)c4ccccc4)nnn3c3ccc(Cl)cc23)cc1`, the outcome was inactive.
The result for `COc1ccccc1CNc1nc2c(S(=O)(=O)c3ccccc3)nnn2c2ccc(Cl)cc12` reads “inactive”; that for `CCc1ccc(S(=O)(=O)c2nnn3c2nc(N(CC)Cc2ccccc2)c2cc(Cl)ccc23)cc1`, “inactive”.
Regarding `COc1ccc(Nc2nc3c(S(=O)(=O)c4ccccc4)nnn3c3ccc(Cl)cc23)cc1`, the result was inactive.
Consider `CN(Cc1ccccc1)c1nc2c(S(=O)(=O)c3ccccc3)nnn2c2ccccc12`, for which the outcome was inactive.
The result for `CCc1ccc(S(=O)(=O)c2nnn3c2nc(NCc2ccccc2OC)c2cc(Cl)ccc23)cc1` reads “inactive”; that for `Cc1ccc(CNc2nc3c(S(=O)(=O)c4cc(C)ccc4C)nnn3c3ccccc23)cc1`, “inactive”.
The result for `O=C1CCCN1CCCNc1nc2c(S(=O)(=O)c3ccc(Br)cc3)nnn2c2ccccc12` reads “inactive”; that for `CCN(CC)c1nc2c(S(=O)(=O)c3ccccc3)nnn2c2ccccc12`, “inactive”; that for `CC(=O)c1ccc(N2CCN(c3nc4c(S(=O)(=O)c5ccc(C)c(C)c5)nnn4c4ccc(Cl)cc34)CC2)cc1`, “inactive”.
In the case of `CCc1ccc(S(=O)(=O)c2nnn3c2nc(Nc2ccc(F)cc2)c2cc(Cl)ccc23)cc1` it was “inactive”; in that of `Cc1ccc(S(=O)(=O)c2nnn3c2nc(N2CCCC2)c2ccccc23)cc1`, “inactive”.
With `CCc1ccc(S(=O)(=O)c2nnn3c2nc(NCc2cccc(OC)c2)c2cc(Cl)ccc23)cc1`, the outcome was inactive.
The result for `Cc1ccc(S(=O)(=O)c2nnn3c2nc(N2CCC(C)CC2)c2cc(Cl)ccc23)cc1C` reads “inactive”; that for `c1ccc(-c2nnn3c2nc(N2CCOCC2)c2ccccc23)cc1`, “inactive”.
In the case of `COc1cc(Nc2nc3c(S(=O)(=O)c4ccccc4)nnn3c3ccc(Cl)cc23)cc(OC)c1` it was “inactive”; in that of `CCOC(=O)C1CCCN(c2nc3c(S(=O)(=O)c4ccccc4)nnn3c3ccccc23)C1` (configuration not stated), “inactive”.
As to `Cc1ccc(S(=O)(=O)c2nnn3c2nc(N2CCN(c4cccc(C)c4C)CC2)c2ccccc23)cc1C`, the outcome was inactive.
The result for `Cc1ccc(C)c(N2CCN(c3nc4c(S(=O)(=O)c5ccccc5)nnn4c4ccc(Cl)cc34)CC2)c1` reads “inactive”.
On to `O=S(=O)(c1ccccc1)c1nnn2c1nc(NCc1ccccc1)c1cc(Cl)ccc12`, for which the outcome was inactive.
In the case of `O=S(=O)(c1ccccc1)c1nnn2c1nc(N1CCCC1)c1cc(Cl)ccc12` it was “inactive”; in that of `COCCCNc1nc2c(S(=O)(=O)c3ccc(C)c(C)c3)nnn2c2ccc(Cl)cc12`, “inactive”.
In the case of `Cc1ccc(S(=O)(=O)c2nnn3c2nc(N2CCCC(C)C2)c2cc(Cl)ccc23)cc1C` (configuration not stated) it was “inactive”.
In the case of `Nc1nc2c(C(=O)N3CCOCC3)nnn2c2ccccc12`, the result was inactive.
The result for `COc1ccc(Nc2nc3c(S(=O)(=O)c4ccccc4)nnn3c3ccc(Cl)cc23)c(OC)c1` reads “inactive”; that for `Cc1ccc(CNc2nc3c(S(=O)(=O)c4ccc(C)c(C)c4)nnn3c3ccc(Cl)cc23)cc1`, “inactive”; that for `CCc1ccc(S(=O)(=O)c2nnn3c2nc(N2CCC(C)CC2)c2cc(Cl)ccc23)cc1`, “inactive”.
`COCCCNc1nc2c(S(=O)(=O)c3ccccc3)nnn2c2ccc(Cl)cc12`: the outcome was inactive.
In the case of `CCOC(=O)c1nnn2c1nc(N(CC)CC)c1ccccc12` it was “inactive”.
The result for `Cc1ccc(S(=O)(=O)c2nnn3c2nc(NC(C)C)c2cc(Cl)ccc23)cc1C` reads “inactive”.
In the case of `Cc1ccc(Nc2nc3c(S(=O)(=O)c4ccccc4)nnn3c3ccc(Cl)cc23)c(C)c1` it was “inactive”; in that of `CCc1ccc(S(=O)(=O)c2nnn3c2nc(NCc2ccccc2)c2cc(Cl)ccc23)cc1`, “inactive”.
For `CCN(Cc1ccccc1)c1nc2c(S(=O)(=O)c3ccccc3)nnn2c2ccc(Cl)cc12`, the result was inactive.
The result for `CC(=O)c1ccc(Nc2nc3c(S(=O)(=O)c4ccccc4)nnn3c3ccc(Cl)cc23)cc1` reads “inactive”.
Regarding `Cc1ccc(S(=O)(=O)c2nnn3c2nc(N2CCN(c4ccccc4F)CC2)c2ccccc23)cc1C`, the result was inactive.
On to `NC(=O)C1CCN(c2nc3c(S(=O)(=O)c4ccc(Br)cc4)nnn3c3ccccc23)CC1`, for which the outcome was inactive.
The result for `COc1ccc(Nc2nc3c(S(=O)(=O)c4ccccc4)nnn3c3ccc(Cl)cc23)cc1OC` reads “inactive”.
For `CCc1ccc(S(=O)(=O)c2nnn3c2nc(NCCNC(C)=O)c2cc(Cl)ccc23)cc1`, the result was inactive.
In the case of `O=S(=O)(c1ccccc1)c1nnn2c1nc(N1CCN(c3ccccc3)CC1)c1cc(Cl)ccc12` it was “inactive”; in that of `CCOC(=O)C1CCCN(c2nc3c(S(=O)(=O)c4ccc(C)c(C)c4)nnn3c3ccc(Cl)cc23)C1` (configuration not stated), “inactive”.
Regarding `CCOc1ccc(Nc2nc3c(S(=O)(=O)c4ccc(CC)cc4)nnn3c3ccc(Cl)cc23)cc1`, the outcome was inactive.
The result for `CCN(Cc1ccccc1)c1nc2c(S(=O)(=O)c3ccc(C)c(C)c3)nnn2c2ccc(Cl)cc12` reads “inactive”; that for `Cc1ccc(N2CCN(c3nc4c(S(=O)(=O)c5ccc(C)c(C)c5)nnn4c4ccccc34)CC2)c(C)c1`, “inactive”.
In the case of `COc1ccccc1Nc1nc2c(S(=O)(=O)c3c(C)cc(C)cc3C)nnn2c2ccccc12` it was “inactive”.
The result for `CCOCCCNc1nc2c(S(=O)(=O)c3ccc(CC)cc3)nnn2c2ccc(Cl)cc12` reads “inactive”; that for `COc1ccccc1N1CCN(c2nc3c(S(=O)(=O)c4ccccc4)nnn3c3ccc(Cl)cc23)CC1`, “inactive”.
Turning to `CCc1ccc(S(=O)(=O)c2nnn3c2nc(N2CCN(c4ccccc4)CC2)c2cc(Cl)ccc23)cc1`, the result was inactive.
For the compound `O=S(=O)(c1ccc(Cl)cc1)c1nnn2c1nc(Cl)c1ccccc12`, the outcome was inactive.
On to `Cc1ccc(C)c(S(=O)(=O)c2nnn3c2nc(NCCC(C)C)c2ccccc23)c1`, for which the result was inactive.
In the case of `Cc1ccc(S(=O)(=O)c2nnn3c2nc(N2CCN(c4ccccc4F)CC2)c2cc(Cl)ccc23)cc1C`, the outcome was inactive.
As to `COCCNc1nc2c(S(=O)(=O)c3ccccc3)nnn2c2ccc(Cl)cc12`, the result was inactive.
For the compound `CC(=O)c1ccc(Nc2nc3c(S(=O)(=O)c4ccc(C)c(C)c4)nnn3c3ccccc23)cc1`, the result was inactive.
In the case of `CCc1ccc(S(=O)(=O)c2nnn3c2nc(N2CCC(C(N)=O)CC2)c2cc(Cl)ccc23)cc1` it was “inactive”; in that of `CC(=O)c1ccccc1N1CCN(c2nc3c(S(=O)(=O)c4ccccc4)nnn3c3ccc(Cl)cc23)CC1`, “inactive”; in that of `CC(=O)NCCNc1nc2c(-c3ccccc3)nnn2c2ccccc12`, “inactive”.
The result for `CCOC(=O)C1CCN(c2nc3c(S(=O)(=O)c4ccc(C)c(C)c4)nnn3c3ccc(Cl)cc23)CC1` reads “inactive”; that for `CCc1ccc(S(=O)(=O)c2nnn3c2nc(N(C)Cc2ccccc2)c2cc(Cl)ccc23)cc1`, “inactive”; that for `O=C(Nc1ccc(Nc2nc3c(S(=O)(=O)c4ccc(Br)cc4)nnn3c3ccccc23)cc1)c1ccco1`, “inactive”.
In the case of `CCc1ccc(S(=O)(=O)c2nnn3c2nc(N2CCCC(C)C2)c2cc(Cl)ccc23)cc1` (configuration not stated) it was “inactive”; in that of `CCc1ccc(S(=O)(=O)c2nnn3c2nc(NC(C)C)c2cc(Cl)ccc23)cc1`, “inactive”; in that of `CCOC(=O)C1CCN(c2nc3c(S(=O)(=O)c4ccccc4)nnn3c3ccc(Cl)cc23)CC1`, “inactive”.
Consider `CCOC(=O)C1CCN(c2nc3c(S(=O)(=O)c4ccc(CC)cc4)nnn3c3ccc(Cl)cc23)CC1`, for which the outcome was inactive.
In the case of `Cc1ccc(S(=O)(=O)c2nnn3c2nc(NCCC(C)C)c2cc(Cl)ccc23)cc1C` it was “inactive”.
The result for `Cc1ccc(S(=O)(=O)c2nnn3c2nc(NCC2CCCO2)c2ccccc23)cc1` (configuration not stated) reads “inactive”; that for `CC(=O)NCCNc1nc2c(S(=O)(=O)c3ccc(C)c(C)c3)nnn2c2ccc(Cl)cc12`, “inactive”; that for `CCc1ccc(S(=O)(=O)c2nnn3c2nc(Nc2cc(OC)cc(OC)c2)c2cc(Cl)ccc23)cc1`, “inactive”.
In the case of `Cc1ccc(S(=O)(=O)c2nnn3c2nc(N2CCN(c4ccc(F)cc4)CC2)c2cc(Cl)ccc23)cc1C` it was “inactive”.
On to `COc1ccccc1N1CCN(c2nc3c(S(=O)(=O)c4ccc(C)c(C)c4)nnn3c3ccc(Cl)cc23)CC1`, for which the result was inactive.
The result for `Cc1ccc(C)c(S(=O)(=O)c2nnn3c2nc(Nc2ccc(C)c(C)c2)c2ccccc23)c1` reads “inactive”.

(Values after ChEMBL document CHEMBL1154960, “Development of improved inhibitors of wall teichoic acid biosynthesis with potent activity against Staphylococcus aureus” (Bioorg Med Chem Lett, 2010).)
